Measurements published in patent US9096591B2, “Tetracyclic compounds” (Medivation Technologies, Inc., priority 2007, dated 2015).

Key:
[1] = target: T1, human recombinant adrenergic α1D receptor (Homo sapiens, UniProt P25100); assay: Adrenergic α1D radioligand binding ([3H]Prozosin); design: Inhibition of ligand binding, Adren. alpha1D: concentration or dose not given beside the values; conditions: for Inhibition of ligand binding, Adren. alpha1D: percent inhibition of specific binding
T1 construct: expressed in transfected cells; host or cells: HEK-293 cells
T1 sequence (P25100 1-572): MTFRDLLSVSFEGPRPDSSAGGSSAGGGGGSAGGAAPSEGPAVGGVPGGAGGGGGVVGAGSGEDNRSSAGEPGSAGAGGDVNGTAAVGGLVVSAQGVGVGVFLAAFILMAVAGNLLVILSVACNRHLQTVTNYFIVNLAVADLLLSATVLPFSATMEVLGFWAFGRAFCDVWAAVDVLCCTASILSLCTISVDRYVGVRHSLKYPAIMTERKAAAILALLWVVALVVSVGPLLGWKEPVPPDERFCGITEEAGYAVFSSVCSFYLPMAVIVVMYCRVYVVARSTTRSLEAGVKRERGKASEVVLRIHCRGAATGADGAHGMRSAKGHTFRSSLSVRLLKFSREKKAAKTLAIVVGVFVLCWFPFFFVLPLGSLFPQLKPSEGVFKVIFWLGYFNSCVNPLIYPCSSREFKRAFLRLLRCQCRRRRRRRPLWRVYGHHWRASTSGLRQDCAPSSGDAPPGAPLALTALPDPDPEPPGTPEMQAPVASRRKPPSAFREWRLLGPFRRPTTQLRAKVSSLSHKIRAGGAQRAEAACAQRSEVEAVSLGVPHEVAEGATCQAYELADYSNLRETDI
Procedure: Compounds of invention were incubated with 0.6 nM [^3H]Prozosin for 60 minutes at 25° C. Non-specific binding was estimated in the presence of 10 μM phentolamine. Receptor proteins were filtered and washed, the filters were then counted to determine [^3H]Prozosin specifically bound. […] Biochemical assay results are presented as the percent inhibition of specific binding in Table 6.

[2] = target: T2, human recombinant dopamine D2L receptor (Homo sapiens, UniProt P14416); assay: Dopamine D2L radioligand binding ([3H]Spiperone); conditions: percent inhibition of specific binding
T2 construct: expressed in transfected cells; host or cells: CHO cells
T2 sequence (P14416 whole entry): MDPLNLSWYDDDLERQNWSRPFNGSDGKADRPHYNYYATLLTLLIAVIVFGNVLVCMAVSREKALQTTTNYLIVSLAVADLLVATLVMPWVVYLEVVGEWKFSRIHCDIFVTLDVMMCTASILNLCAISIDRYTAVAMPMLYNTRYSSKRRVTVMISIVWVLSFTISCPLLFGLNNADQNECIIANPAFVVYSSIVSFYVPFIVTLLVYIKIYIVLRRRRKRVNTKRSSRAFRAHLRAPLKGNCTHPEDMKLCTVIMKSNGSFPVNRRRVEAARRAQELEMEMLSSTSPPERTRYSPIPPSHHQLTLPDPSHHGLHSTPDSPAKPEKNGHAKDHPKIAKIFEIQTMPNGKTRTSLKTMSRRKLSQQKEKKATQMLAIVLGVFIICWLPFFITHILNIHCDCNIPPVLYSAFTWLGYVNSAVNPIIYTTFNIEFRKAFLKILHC
Procedure: Non-specific binding was estimated in the presence of 10 μM Haloperidol. Receptor proteins were filtered and washed, the filters were then counted to determine [^3H]Spiperone specifically bound. […] Biochemical assay results are presented as the percent inhibition of specific binding in Table 6.

[3] = target: T3, human recombinant serotonin (5-Hydroxytryptamine) 5-HT2A receptor (Homo sapiens, UniProt P28223); assay: Serotonin 5-HT2A radioligand binding ([3H]Ketanserin); conditions: for Inhibition of ligand binding, Ser. 5-HT2A: percent inhibition of specific binding
T3 construct: expressed in transfected cells; host or cells: CHO-K1 cells
T3 sequence (P28223 whole entry): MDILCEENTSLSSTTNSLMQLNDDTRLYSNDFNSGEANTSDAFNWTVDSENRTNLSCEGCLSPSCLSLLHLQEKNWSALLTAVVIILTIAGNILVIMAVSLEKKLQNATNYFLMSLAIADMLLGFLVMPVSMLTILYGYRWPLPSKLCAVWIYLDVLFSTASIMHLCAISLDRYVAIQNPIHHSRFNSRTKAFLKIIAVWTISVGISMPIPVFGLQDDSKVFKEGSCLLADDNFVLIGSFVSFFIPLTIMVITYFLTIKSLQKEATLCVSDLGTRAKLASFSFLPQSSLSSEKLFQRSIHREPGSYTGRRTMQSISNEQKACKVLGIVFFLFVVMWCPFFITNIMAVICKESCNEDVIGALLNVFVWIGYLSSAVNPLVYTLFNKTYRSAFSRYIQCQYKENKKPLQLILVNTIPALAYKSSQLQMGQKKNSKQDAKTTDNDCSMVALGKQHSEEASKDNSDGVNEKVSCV
Procedure: (§1) Compounds of the invention were incubated with 0.5 nM [^3H]Ketanserin for 60 minutes at 25° C. Non-specific binding was estimated in the presence of 1 μM Mianserin. Receptor proteins were filtered and washed, the filters were then counted to determine [^3H]Ketanserin specifically bound. […] Biochemical assay results are presented as the percent inhibition of specific binding in Table 6.

[4] = target: T4, human recombinant serotonin (5-Hydroxytryptamine) 5-HT2C receptor (Homo sapiens, UniProt P28335); assay: Serotonin 5-HT2C radioligand binding ([3H]Mesulergine); design: Inhibition of ligand binding, Ser. 5-HT2C: concentration or dose not given beside the values; conditions: for Inhibition of ligand binding, Ser. 5-HT2C: percent inhibition of specific binding
T4 construct: expressed in transfected cells; host or cells: CHO-K1 cells
T4 sequence (P28335 33-458): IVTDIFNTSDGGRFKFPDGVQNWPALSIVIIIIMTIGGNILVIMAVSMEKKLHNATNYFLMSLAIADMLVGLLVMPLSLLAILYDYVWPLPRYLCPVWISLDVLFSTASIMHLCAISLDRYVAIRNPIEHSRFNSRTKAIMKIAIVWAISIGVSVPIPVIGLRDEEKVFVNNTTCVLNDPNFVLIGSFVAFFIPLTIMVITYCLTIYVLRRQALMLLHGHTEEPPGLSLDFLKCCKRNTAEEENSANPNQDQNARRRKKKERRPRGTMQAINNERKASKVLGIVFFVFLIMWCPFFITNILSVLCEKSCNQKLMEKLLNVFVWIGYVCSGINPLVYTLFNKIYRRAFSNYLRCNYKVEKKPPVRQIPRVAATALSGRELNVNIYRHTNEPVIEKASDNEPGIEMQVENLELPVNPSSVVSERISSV
Procedure: as §1, with “1” for “0.5”, “[^3H]Mesulergine” for “[^3H]Ketanserin”

[5] = target: T5, Serotonin (5-Hydroxytryptamine) 5-HT7 (Homo sapiens, UniProt P34969); assay: Serotonin 5-HT7 radioligand binding ([3H]LSD); design: Inhibition of ligand binding, Ser. 5-HT7: concentration or dose not given beside the values; conditions: for Inhibition of ligand binding, Ser. 5-HT7: percent inhibition of specific binding
T5 construct: expressed in transfected cells; host or cells: CHO cells
T5 sequence (P34969 whole entry): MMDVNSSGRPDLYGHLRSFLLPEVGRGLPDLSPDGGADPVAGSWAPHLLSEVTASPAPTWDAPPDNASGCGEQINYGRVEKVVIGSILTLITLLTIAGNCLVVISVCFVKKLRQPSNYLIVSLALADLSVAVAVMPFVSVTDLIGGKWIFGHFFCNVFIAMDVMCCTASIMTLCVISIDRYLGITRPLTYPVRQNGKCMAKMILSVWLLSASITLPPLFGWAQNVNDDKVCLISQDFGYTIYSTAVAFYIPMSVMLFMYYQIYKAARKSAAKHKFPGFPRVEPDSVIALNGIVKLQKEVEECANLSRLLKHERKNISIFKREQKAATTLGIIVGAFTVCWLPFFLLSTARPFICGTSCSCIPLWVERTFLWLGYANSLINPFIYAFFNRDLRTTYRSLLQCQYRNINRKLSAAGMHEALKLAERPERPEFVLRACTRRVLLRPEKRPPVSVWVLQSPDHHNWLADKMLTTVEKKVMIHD
Procedure: Lysergic acid diethylamide (LSD) for 2 hours at 25° C. […] Receptor proteins were filtered and washed, the filters were then counted to determine [^3H]LSD specifically bound. […] Biochemical assay results are presented as the percent inhibition of specific binding in Table 6.

SMILES | Inhibition of ligand binding, Adren. alpha1D [1] [%] | Inhibition of ligand binding, Dop. D2L [2] [%] | Inhibition of ligand binding, Ser. 5-HT2A [3] [%] | Inhibition of ligand binding, Ser. 5-HT2C [4] [%] | Inhibition of ligand binding, Ser. 5-HT7 [5] [%] | Adren. alpha1D ([1]; inhibition profile) | Ser. 5-HT2A ([3]; inhibition profile) | Ser. 5-HT2C ([4]; inhibition profile) | Ser. 5-HT7 ([5]; inhibition profile)
Cc1ccc(CCn2c3c(c4ccccc42)CN(C)CC3)cc1 [Compound 1, 2,3,4,5-tetrahydro-2-methyl-5-(4-methylphenethyl)-1H-pyrido[4,3-b]indole] | 76 | 62 | 95 | 95 | 98 |  |  |  | 
CCOC(=O)N1CCc2c(c3cc(Br)ccc3n2CCc2ccc(C)nc2)C1 [Compound 18, ethyl 8-bromo-3,4-dihydro-5-(2-(6-methylpyridin-3-yl)ethyl)-1H-pyrido[4,3-b]indole-2(5H)-carboxylate] | −10 | −7 | 5 | −14 | 10 |  |  |  | 
CCOC(=O)N1CCc2c(c3cc(-c4cccnc4)ccc3n2CCc2ccc(C)nc2)C1 [Compound 19, ethyl 3,4-dihydro-5-(2-(6-methylpyridin-3-yl)ethyl)-8-(pyridin-3-yl)-1H-pyrido[4,3-b]indole-2(5H)-carboxylate] | −6 | −5 | 2 | −17 | 12 |  |  |  | 
Cc1ccc2c(c1)c1c(n2CCc2ccncc2)CCN(C)C1 [Compound 22, 2,3,4,5-tetrahydro-2,8-dimethyl-5-(2-(pyridin-4-yl)ethyl)-1H-pyrido[4,3-b]indole] | 83 | 27 | 81 | 87 | 99 |  |  |  | 
CCOC(=O)N1CCc2c(c3cc(C)ccc3n2CCc2ccccc2)C1 [Compound 24, ethyl 3,4-dihydro-8-methyl-5-phenethyl-1H-pyrido[4,3-b]indole-2(5H)-carboxylate] | 6 | 3 | −2 | 1 | −2 |  |  |  | 
CN1CCc2c(c3cc(Cl)ccc3n2CCc2ccccn2)C1 [Compound 30, 8-chloro-2,3,4,5-tetrahydro-2-methyl-5-(2-(pyridin-2-yl)ethyl)-1H-pyrido[4,3-b]indole] | 68 | 29 | 91 | 90 | 99 |  |  |  | 
Cc1ccc2c(c1)c1c(n2CCc2ccc(Cl)cc2)CCN(C)C1 [Compound 32, 5-(4-chlorophenethyl)-2,3,4,5-tetrahydro-2,8-dimethyl-1H-pyrido[4,3-b]indole] | 94 | 82 | 96 | 100 | 101 |  |  |  | 
Cc1ccc2c(c1)c1c(n2Cc2ccc(C)nc2)CCN(C)C1 [Compound 139, 2,3,4,5-tetrahydro-2,8-dimethyl-5-((6-methylpyridin-3-yl)methyl)-1H-pyrido[4,3-b]indole] | 25 |  | 2 | 0 | 74 |  |  |  | 
CCN1CCc2c(c3cc(C)ccc3n2Cc2ccccc2)C1 [Compound 140, 5-benzyl-2-ethyl-2,3,4,5-tetrahydro-8-methyl-1H-pyrido[4,3-b]indole] | 14 |  | −3 | −10 | 2 |  |  |  | 
Cc1ccc2c(c1)c1c(n2CCN2CCCC2)CCN(C)C1 [Compound 221, 2,3,4,5-tetrahydro-2,8-dimethyl-5-(2-(pyrrolidin-1-yl)ethyl)-1H-pyrido[4,3-b]indole] | 30 |  | 46 | 69 | 36 |  |  |  | 
Cc1ccc2c(c1)c1c(n2CCC(=O)N2CCC(N)CC2)CCN(C)C1 [Compound 231, 1-(4-aminopiperidin-1-yl)-3-(1,2,3,4-tetrahydro-2,8-dimethylpyrido[4,3-b]indol-5-yl)propan-1-one] | 21 |  | 5 | 49 | 0 |  |  |  | 
Cc1ccc2c(c1)c1c(n2CCc2ccc(C)nc2)C(Br)C(=O)N(C)C1 (stereo not drawn) [Compound 232, 4-bromo-1,2-dihydro-2,8-dimethyl-5-(2-(6-methylpyridin-3-yl)ethyl)-4H-pyrido[4,3-b]indol-3(5H)-one] | 5 |  | −10 | 2 | 6 |  |  |  | 
Cc1ccc2c(c1)c1c(n2CCCc2ccccn2)CCN(C)C1 [Compound 233, 2,3,4,5-tetrahydro-2,8-dimethyl-5-(3-(pyridin-2-yl)propyl)-1H-pyrido[4,3-b]indole] | 49 |  | 92 | 93 | 101 |  |  |  | 
Cc1ccc2c(c1)c1c(n2CCc2ccc(C(=O)O)nc2)CCN(C)C1 [Compound 255] | 2 |  | 1 | 11 | 11 |  |  |  | 
Cc1ccc(CCn2c3c(c4cc(C(=O)O)ccc42)CNCC3)cn1 [Compound 274, 2,3,4,5-tetrahydro-5-(2-(6-methylpyridin-3-yl)ethyl)-1H-pyrido[4,3-b]indole-8-carboxylic acid] | −16 |  | 6 | −5 | −3 |  |  |  | 
CN1CCc2c(c3ccccc3n2CCc2ccccn2)C1 [Compound 329, 2,3,4,5-tetrahydro-2-methyl-5-(2-(pyridin-2-yl)ethyl)-1H-pyrido[4,3-b]indole] | 4 |  | 70 | 54 | 78 |  |  |  | 
Cc1ccc2c(c1)c1c(n2CCc2ccc(C)nc2)CC[N+](C)([O-])C1 (stereo not drawn) [Example 93, 2,8-dimethyl-5-(2-(6-methylpyridin-3-yl)ethyl)-2,3,4,5-tetrahydro-1H-pyrido[4,3-b]indole 2-oxide] |  |  |  |  |  | 19 | 4 | 9 | 35
